Measurements reported in US9617237B2, “Partially saturated tricyclic compounds and methods of making and using same” (Zafgen, Inc., priority 2011, dated 2017).
pIC50: −log10 of the molar value. Counter-ions that a name gives are not always drawn.

Molecular target: T1, recombinant human MetAP2 (Homo sapiens, UniProt P50579)
T1 construct: made in house; host or cells: Sf9 insect cells
Test: Inhibition of recombinant human MetAP2 activity (fluorescence, MAS substrate, amino acid oxidase/Amplex red)
Format: biochemical
Conditions: manganese enzyme; 0.75 mM Methionine-Alanine-Serine (MAS) substrate; 30 minutes at 25° C.; pH 7.5; 1% DMSO
Procedure: Compounds are tested for their capacity to inhibit recombinant human MetAP2 activity using the following assay.
Human recombinant MetAP2 expressed in Sf9 cells followed by affinity purification and EDTA treatment to remove endogenous active site cation was dialysed against MnCl2 to produce the manganese enzyme used in the assay. The assay was carried out for 30 minutes at 25° C. in 50 mM HEPES buffer containing 100 mM NaCl, pH 7.5 the presence of 0.75 mM Methionine-Alanine-Serine (MAS) substrate and 50 μg/ml amino acid oxidase using a dilution of purified MetAP2 giving >3-fold signal: noise. Cleavage of the substrate by MetAP2 and oxidation of free methionine by amino acid oxidase was detected and quantified using fluorescence generated by Amplex red (10-acetyl-3,7-dihydroxyphenoxazine) in combination with horseradish peroxidase which detects H2O2 released during the oxidation step. The fluorescent signal was detected using a multiwell fluorimeter. Compounds were diluted in DMSO prior to addition to assay buffer, the final DMSO concentration in the assay being 1%.
IC50 values are calculated using the XLfit software package (version 2.0.5).

T1 sequence (P50579 whole entry): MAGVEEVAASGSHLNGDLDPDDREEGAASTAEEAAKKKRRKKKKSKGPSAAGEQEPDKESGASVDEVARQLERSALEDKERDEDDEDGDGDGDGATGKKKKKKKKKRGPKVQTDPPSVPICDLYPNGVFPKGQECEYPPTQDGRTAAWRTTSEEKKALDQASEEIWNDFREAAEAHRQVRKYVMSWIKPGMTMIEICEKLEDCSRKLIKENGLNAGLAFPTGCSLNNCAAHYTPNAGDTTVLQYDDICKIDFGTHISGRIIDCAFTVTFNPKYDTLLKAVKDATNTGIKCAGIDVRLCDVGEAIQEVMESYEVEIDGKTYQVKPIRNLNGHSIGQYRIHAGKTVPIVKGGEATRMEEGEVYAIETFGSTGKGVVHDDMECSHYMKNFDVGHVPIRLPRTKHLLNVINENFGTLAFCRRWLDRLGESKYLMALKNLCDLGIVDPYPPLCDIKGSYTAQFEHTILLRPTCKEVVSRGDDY

| Compound | pIC50 |
| --- | --- |
| CCN(CC)C/C=C\c1cc(F)ccc1S(=O)(=O)Nc1ccc2c(c1C(=O)O)OC[C@H]1C[C@@H]21 [(1aS,7bR) 5-[2-((Z)-3-Diethylaminoprop-1-enyl)-4-fluorobenzenesulfonyl-amino]-1,1a,2,7b-tetrahydrocyclopropa[c]chromene-4-carboxylic acid] | 6.30 to 7.30 |
| O=C(O)c1c(NS(=O)(=O)c2ccc(F)cc2/C=C\CN2CCCC2)ccc2c1OC[C@@H]1C[C@H]21 (single isomer, unassigned) [(1aRS,7bSR)-5-{2[(Z)-3-(pyrrolidin-1-yl)prop-1-enyl]-4-fluorobenzenesulfonylamino}-1,1a,2,7b-tetrahydro-cyclopropa[c]chromene-4-carboxylic acid] | 6.30 to 7.30 |
| O=C(O)c1c(NS(=O)(=O)c2ccccc2)ccc2c3c(cnc12)OCC3 [7-(Benzenesulfonylamino))-1,2-dihydrofuro[2,3-c]quinoline-6-carboxylic acid formate salt] | > 7.30 |
| CN(C)CCCCN(C)c1ccccc1S(=O)(=O)Nc1ccc2c(c1C(=O)O)OC[C@@H]1C[C@H]21 (racemic) [(1aRS,7bSR)-5-{2-[N-(4-Dimethylaminobutyl)-N-methylamino]-benzenesulfonyl-amino}-1,1a,2,7b-tetrahydrocyclopropa-[c]chromene-4-carboxylic acid] | < 6.30 |
| CN(C)CCCC(=O)Nc1cc(F)ccc1S(=O)(=O)Nc1ccc2c(c1C(=O)O)OC[C@@H]1C[C@H]21 (racemic) [(1aRS,7bSR)-5-[2-(4-Dimethylaminobutyrylamino)-4-fluorobenzenesulfonyl-amino]-1,1a,2,7b-tetrahydrocyclopropa-[c]chromene-4-carboxylic acid] | 6.30 to 7.30 |
| O=C(O)c1c(NS(=O)(=O)c2ccc(F)cc2CCCN2CCC2)ccc2c1OCC1CC21 (stereo not drawn) [(1aRS,7bSR)-5-{2[(Z)-3-(Azetidin-1-yl)propyl]-4-fluorobenzenesulfonylamino}-1,1a,2,7b-tetrahydrocyclopropa[c]chromene-4-carboxylic acid] | 6.30 to 7.30 |
| CCN1CCCC(Cc2cc(F)ccc2S(=O)(=O)Nc2ccc3c(c2C(=O)O)OC[C@@H]2C[C@H]32)C1 (stereo partly drawn) [(1aR,7bS)-5-[2-(1-Ethylpiperidin-3-ylmethyl)-4-fluorobenzene-sulfonylamino]-1,1a,2,7b-tetrahydrocyclopropa[c]chromene-4-carboxylic acid] | 6.30 to 7.30 |
| CCN1CC(CCc2cc(F)ccc2S(=O)(=O)Nc2ccc3c(c2C(=O)O)OC[C@@H]2C[C@H]32)C1 (racemic) [(1aRS,7bSR)-5-{2-[2-(1-Ethylazetidin-3-yl)ethyl]-4-fluoro-benzenesulfonyl-amino}-1,1a,2,7b-tetrahydrocyclopropa-[c]chromene-4-carboxylic acid] | 6.30 to 7.30 |
| CN(C)CCCNc1ccccc1S(=O)(=O)Nc1ccc2c(c1C(=O)O)OC[C@@H]1C[C@H]21 (racemic) [(1aRS,7bSR)-5-[2-(3-Dimethylaminopropylamino)benzene-sulfonylamino]-1,1a,2,7b-tetrahydrocyclopropa[c]chromene-4-carboxylic acid] | > 7.30 |
| CCN1CC[C@@H](C(=O)NCc2cc(F)ccc2S(=O)(=O)Nc2ccc3c(c2C(=O)O)OC[C@@H]2C[C@H]32)C1 (mixture of isomers) [(1aRS,7bSR)-5-(2-{[((R)-1-Ethylpyrrolidine-3-carbonyl)amino]-methyl}-4-fluoro-benzenesulfonylamino)-1,1a,2,7b-tetrahydro-cyclopropa[c]chromene-4-carboxylic acid] | 6.30 to 7.30 |
| O=C(O)c1c(NS(=O)(=O)c2ccc(F)cc2/C=C\CNN2CC[C@H](O)C2)ccc2c1OC[C@@H]1C[C@H]21 [(1aRS,7bSR)-5-{2[(Z)-3-((S)-3-hydroxypyrrolidin-1-y)aminoprop-1-enyl]-4-fluorobenzenesulfonylamino}-1,1a,2,7b-tetrahydrocyclopropa[c]chromene-4-carboxylic acid] | 6.30 to 7.30 |
| (1aRS,7bSR)-5-{2[(Z)-3-((R)-3-Hydroxypyrrolidin-1-yl)aminoprop-1-enyl]-4-fluorobenzene-sulfonylamino}-1,1a,2,7b-tetrahydro-cyclopropa[c]chromene-4-carboxylic acid | 6.30 to 7.30 |
| CCN(CC)CCCc1cc(F)ccc1S(=O)(=O)Nc1ccc2c(c1C(=O)O)OC[C@H]1OCC[C@@H]21 (racemic) [Cis-(3aRS,9bRS)-7-[2-(3-Diethylaminopropyl)-4-fluorobenzenesulfonyl-amino]-1,3a,4,9b-tetrahydro-2H-furo[2,3-c]chromene-6-carboxylic acid] | 6.30 to 7.30 |
| CCN1CCC[C@H]1CCNc1ccccc1S(=O)(=O)Nc1ccc2c(c1C(=O)O)OC[C@@H]1C[C@H]21 (mixture of isomers) [(1aRS,7bSR)-5-{2-[2-((S)-1-Ethylpyrrolidin-2-yl)ethylamino]-benzenesulfonyl-amino}-1,1a,2,7b-tetrahydrocyclopropa-[c]chromene-4-carboxylic acid] | > 7.30 |
| CN(C)CCCNC(=O)c1ccccc1S(=O)(=O)Nc1ccc2c(c1C(=O)O)OC[C@@H]1C[C@H]21 (racemic) [(1aRS,7bSR)-5-[2-(3-Dimethylaminopropylcarbamoyl)benzene-sulfonylamino]-1,1a,2,7b-tetrahydrocyclopropa[c]chromene-4-carboxylic acid] | 6.30 to 7.30 |
| CCN1CCC[C@@H]1CCNc1ccccc1S(=O)(=O)Nc1ccc2c(c1C(=O)O)OC[C@@H]1C[C@H]21 (mixture of isomers) [(1aRS,7bSR)-5-{2-[2-((R)-1-Ethylpyrrolidin-2-yl)ethylamino]-benzenesulfonyl-amino}-1,1a,2,7b-tetrahydrocyclopropa-[c]chromene-4-carboxylic acid] | > 7.30 |
| CN(C)CCCCCNc1ccccc1S(=O)(=O)Nc1ccc2c(c1C(=O)O)OC[C@@H]1C[C@H]21 (racemic) [(1aRS,7bSR)-5-[2-(5-Dimethylaminopentylamino)benzene-sulfonylamino]-1,1a,2,7b-tetrahydrocyclopropa[c]chromene-4-carboxylic acid] | > 7.30 |
| O=C(O)c1c(NS(=O)(=O)c2ccccc2N[C@@H]2CN3CCC2CC3)ccc2c1OCC1CC21 (mixture of isomers) [(1aRS,7bSR)-5-{2-[((S)-1-Azabicyclo[2.2.2]oct-3-yl)amino]benzenesulfonyl-amino}-1,1a,2,7b-tetrahydrocyclopropa[c]chromene-4-carboxylic acid] | 6.30 to 7.30 |
| CCN1CC(c2cc(F)ccc2S(=O)(=O)Nc2ccc3c(c2C(=O)O)OC[C@@H]2C[C@H]32)C1 (racemic) [(1aRS,7bSR)-5-[2-(1-Ethylazetidin-3-yl)-4-fluorobenzene-sulfonylamino]-1,1a,2,7b-tetrahydro-cyclopropa[c]chromene-4-carboxylic acid] | 6.30 to 7.30 |
| CCN(CC)C/C=C\c1cc(F)ccc1S(=O)(=O)Nc1ccc2c3c(cnc2c1C(=O)O)OCC3 [7-[2-((Z)-3-Diethylaminoprop-1-enyl)-4-fluorobenzenesulfonyl-amino]-1,2-dihydrofuro[2,3-c]quinoline-6-carboxylic acid formate salt] | > 7.30 |
| CCN(CC)C/C=C\c1cc(F)ccc1S(=O)(=O)Nc1ccc2c(c1C(=O)O)NC[C@H]1OCC[C@@H]21 (racemic) [Cis-(3aRS,9bRS)-7-[2-((Z)-3-Diethylaminoprop-1-enyl)-4-fluorobenzenesulfonylamino]-1,2,3a,4,5,9b-hexahydrofuro[2,3-c]quinoline-6-carboxylic acid] | > 7.30 |
